Broadly, the Ki is a measure of affinity in units of concentration, obtained from inhibition or displacement. Low readings indicate higher affinity, high ones lower affinity.

The target of assay [1] is T1, Adrenergic receptor alpha-2 (Rattus norvegicus, UniProt P22086+P19328+P22909).
T1 sequence (P22086 whole entry): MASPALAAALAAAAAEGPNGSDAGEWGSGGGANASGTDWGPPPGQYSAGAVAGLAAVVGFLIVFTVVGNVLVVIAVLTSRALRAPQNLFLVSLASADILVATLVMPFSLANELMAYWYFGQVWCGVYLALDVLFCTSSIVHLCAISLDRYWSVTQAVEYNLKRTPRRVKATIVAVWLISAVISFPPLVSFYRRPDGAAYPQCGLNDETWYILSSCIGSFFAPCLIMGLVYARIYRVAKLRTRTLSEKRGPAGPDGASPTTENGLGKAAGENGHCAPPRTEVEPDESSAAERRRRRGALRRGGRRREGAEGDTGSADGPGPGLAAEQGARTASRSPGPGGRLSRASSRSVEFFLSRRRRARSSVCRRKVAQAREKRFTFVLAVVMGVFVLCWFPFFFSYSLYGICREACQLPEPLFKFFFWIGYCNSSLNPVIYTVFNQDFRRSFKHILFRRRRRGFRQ
T1 sequence (P19328 whole entry): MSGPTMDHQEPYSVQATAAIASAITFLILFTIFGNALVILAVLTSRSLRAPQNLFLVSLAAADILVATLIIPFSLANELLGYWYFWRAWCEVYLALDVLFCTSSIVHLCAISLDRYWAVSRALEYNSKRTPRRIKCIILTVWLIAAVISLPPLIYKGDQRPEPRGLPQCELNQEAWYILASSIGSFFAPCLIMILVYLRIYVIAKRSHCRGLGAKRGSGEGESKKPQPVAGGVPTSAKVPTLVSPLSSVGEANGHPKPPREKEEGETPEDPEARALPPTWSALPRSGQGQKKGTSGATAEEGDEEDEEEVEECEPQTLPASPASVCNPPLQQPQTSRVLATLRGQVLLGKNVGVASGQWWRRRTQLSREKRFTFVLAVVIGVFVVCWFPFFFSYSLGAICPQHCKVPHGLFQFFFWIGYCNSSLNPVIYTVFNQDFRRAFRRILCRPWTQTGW
T1 sequence (P22909 whole entry): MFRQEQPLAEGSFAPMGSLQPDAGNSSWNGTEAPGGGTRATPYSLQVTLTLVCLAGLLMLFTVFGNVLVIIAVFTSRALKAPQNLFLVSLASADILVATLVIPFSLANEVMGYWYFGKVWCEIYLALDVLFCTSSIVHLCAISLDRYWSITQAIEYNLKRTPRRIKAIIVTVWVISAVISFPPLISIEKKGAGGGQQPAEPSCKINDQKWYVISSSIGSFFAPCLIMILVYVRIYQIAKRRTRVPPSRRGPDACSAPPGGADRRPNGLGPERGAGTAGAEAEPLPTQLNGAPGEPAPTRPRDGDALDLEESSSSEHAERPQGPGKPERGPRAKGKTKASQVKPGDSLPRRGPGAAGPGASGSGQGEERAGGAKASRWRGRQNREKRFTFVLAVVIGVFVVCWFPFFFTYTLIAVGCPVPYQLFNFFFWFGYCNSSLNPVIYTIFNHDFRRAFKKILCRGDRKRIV
Kind of assay: Binding affinity towards alpha-2 adrenergic receptor in rat cortex membrane using [3H]rauwolscine radioligand. The assay is classed as cell membranes.

Assay [2] has as its target Adrenergic receptor alpha-2 (Rattus norvegicus) (UniProt P22086+P19328+P22909). Kind of assay: Ratio of binding affinity towards Alpha-2 and alpha-1 adrenergic receptor. It counts as protein assay.
Assay [3] addresses T2, Adrenergic receptor alpha-1 (Rattus norvegicus, UniProt P15823+P23944+P43140).
T2 sequence (P15823 whole entry): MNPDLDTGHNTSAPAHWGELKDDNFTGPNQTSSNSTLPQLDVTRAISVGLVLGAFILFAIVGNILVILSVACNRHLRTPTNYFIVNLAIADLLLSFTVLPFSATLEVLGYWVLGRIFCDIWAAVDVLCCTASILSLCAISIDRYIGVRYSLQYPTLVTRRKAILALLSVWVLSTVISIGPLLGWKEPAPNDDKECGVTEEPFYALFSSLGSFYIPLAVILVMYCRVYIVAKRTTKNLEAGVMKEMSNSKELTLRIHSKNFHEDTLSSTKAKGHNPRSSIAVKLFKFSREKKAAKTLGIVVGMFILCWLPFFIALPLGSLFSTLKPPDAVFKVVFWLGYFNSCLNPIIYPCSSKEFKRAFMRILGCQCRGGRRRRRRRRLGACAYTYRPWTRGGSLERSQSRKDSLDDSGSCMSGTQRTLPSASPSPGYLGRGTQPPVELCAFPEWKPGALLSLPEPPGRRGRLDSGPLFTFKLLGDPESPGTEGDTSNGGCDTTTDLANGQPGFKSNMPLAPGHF
T2 sequence (P23944 whole entry): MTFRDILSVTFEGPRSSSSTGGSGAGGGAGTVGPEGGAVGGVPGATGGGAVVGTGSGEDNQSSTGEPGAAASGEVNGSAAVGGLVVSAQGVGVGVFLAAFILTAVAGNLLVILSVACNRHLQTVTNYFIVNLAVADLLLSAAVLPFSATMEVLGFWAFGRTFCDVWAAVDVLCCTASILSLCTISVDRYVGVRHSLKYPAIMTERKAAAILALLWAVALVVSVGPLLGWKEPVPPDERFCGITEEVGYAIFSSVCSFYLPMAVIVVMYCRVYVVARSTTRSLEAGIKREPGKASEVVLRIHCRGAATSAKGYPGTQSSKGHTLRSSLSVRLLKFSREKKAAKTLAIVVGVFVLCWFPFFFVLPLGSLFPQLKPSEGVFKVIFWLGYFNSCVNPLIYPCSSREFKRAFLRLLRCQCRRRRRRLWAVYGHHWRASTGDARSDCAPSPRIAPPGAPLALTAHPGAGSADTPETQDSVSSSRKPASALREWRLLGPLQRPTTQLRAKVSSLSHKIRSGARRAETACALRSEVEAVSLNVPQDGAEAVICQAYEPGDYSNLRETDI
T2 sequence (P43140 whole entry): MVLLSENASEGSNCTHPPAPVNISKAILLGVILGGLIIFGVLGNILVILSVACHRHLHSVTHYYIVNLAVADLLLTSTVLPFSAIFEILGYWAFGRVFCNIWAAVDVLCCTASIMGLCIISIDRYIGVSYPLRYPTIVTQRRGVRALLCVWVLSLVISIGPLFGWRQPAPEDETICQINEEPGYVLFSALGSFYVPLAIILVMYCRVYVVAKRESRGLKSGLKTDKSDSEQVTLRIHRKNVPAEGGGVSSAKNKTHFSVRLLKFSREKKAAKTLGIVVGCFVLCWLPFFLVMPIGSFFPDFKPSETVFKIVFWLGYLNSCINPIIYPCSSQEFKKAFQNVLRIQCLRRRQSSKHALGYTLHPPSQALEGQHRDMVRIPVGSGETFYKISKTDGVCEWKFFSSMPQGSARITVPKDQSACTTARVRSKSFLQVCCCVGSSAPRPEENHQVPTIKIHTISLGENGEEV
The assay is described as follows: Binding affinity towards alpha-1 adrenergic receptor in rat cortex membrane using [3H]-prazosin radioligand. The assay is classed as cell membranes.

`O=C(c1ccco1)N1CCN(c2ccc(=O)n(CCCCCCCN3CCN(c4ccccc4Cl)CC3)n2)CC1`: the results for the Ki in assay [1] and in assay [3] were 0.0235 µM and 0.0056 µM, respectively. Further, in assay [2], the Ratio was determined as 4.2.
For `COc1ccccc1OCCN1CCN(c2ccc(=O)n(CCCCCCCN3CCN(c4ccccc4OC)CC3)n2)CC1`, in that order: 0.0458 µM, 0.0023 µM and 20.
As to `COc1ccccc1N1CCN(CCCCCn2nc(N3CCN(C(=O)c4ccco4)CC3)ccc2=O)CC1`, the Ki in assay [1] came out at 0.255 µM; in assay [3], 0.0437 µM. Further, the Ratio in assay [2] is 5.8.
Regarding `O=C(c1ccco1)N1CCN(c2cnn(CCCCN3CCN(c4ccccc4Cl)CC3)c(=O)c2Cl)CC1`, the Ki came out at 0.28 µM in assay [1] and 0.019 µM in assay [3]. Moreover, in assay [2], the Ratio is 14.7.
For the compound `COc1ccccc1OCCN1CCN(c2ccc(=O)n(CCCCCCN3CCN(c4ccccc4Cl)CC3)n2)CC1`, the Ki in assay [1] was determined as 0.1388 µM; in assay [3] it was 0.0084 µM. Moreover, in assay [2], the Ratio is 16.5.
Consider `COc1ccccc1OCCN1CCN(c2cnn(CCCCCCCCN3CCN(c4ccccc4Cl)CC3)c(=O)c2Cl)CC1`, for which the results for the Ki in assay [1] and in assay [3] were 0.0228 µM and 0.0056 µM, respectively. Moreover, the Ratio in assay [2] was determined as 4.
In the case of `COc1ccccc1N1CCN(CCCCCCn2nc(N3CCN(C(=O)c4ccco4)CC3)ccc2=O)CC1`, the figures for the Ki in assay [1] and in assay [3] were 0.1 µM and 0.0178 µM, respectively. Further, the Ratio in assay [2] was determined as 5.6.
On to `COc1ccccc1OCCN1CCN(c2cnn(CCCCCN3CCN(c4ccccc4Cl)CC3)c(=O)c2Cl)CC1`, for which the results for the Ki in assay [1] and in assay [3] were 0.029 µM and 0.0045 µM, respectively. Moreover, in assay [2], the Ratio was determined as 6.4.
In the case of `COc1ccccc1OCCN1CCN(c2ccc(=O)n(CCCCCCN3CCN(c4ccccc4OC)CC3)n2)CC1`, the figures for the Ki in assay [1] and in assay [3] were 0.0718 µM and 0.007 µM, respectively. In addition, in assay [2], the Ratio is 10.2.
On the same counts, the results for `COc1ccccc1OCCN1CCN(c2ccc(=O)n(CCN3CCN(c4ccccc4OC)CC3)n2)CC1` are 1.261 µM, 0.038 µM and 33.2.
For the compound `COc1ccccc1OCCN1CCN(c2cnn(CCN3CCN(c4ccccc4OC)CC3)c(=O)c2Cl)CC1`, the Ki stood at 0.409 µM in assay [1] and 0.016 µM in assay [3]. The Ratio in assay [2] stood at 25.5.
`COc1ccccc1OCCN1CCN(c2ccc(=O)n(CCN3CCN(c4ccccc4Cl)CC3)n2)CC1`: the Ki was 0.37 µM in assay [1] and 0.018 µM in assay [3]. Also, the Ratio in assay [2] amounted to 20.5.
On the same counts, the results for `COc1ccccc1N1CCN(CCCn2nc(N3CCN(C(=O)c4ccco4)CC3)ccc2=O)CC1` are 0.631 µM, 0.0645 µM and 9.8.
On the same counts, the results for `O=C(c1ccco1)N1CCN(c2cnn(CCN3CCN(c4ccccc4Cl)CC3)c(=O)c2Cl)CC1` are 0.15 µM, 0.0039 µM and 38.4.
`O=C(c1ccco1)N1CCN(c2ccc(=O)n(CCCCN3CCN(c4ccccc4Cl)CC3)n2)CC1`: the results for the Ki in assay [1] and in assay [3] were 0.024 µM and 0.0079 µM, respectively. For the same compound, the Ratio in assay [2] is 3.
As for `COc1ccccc1OCCN1CCN(c2ccc(=O)n(CCCCCN3CCN(c4ccccc4OC)CC3)n2)CC1`, the figures for the Ki in assay [1] and in assay [3] were 0.0698 µM and 0.0129 µM, respectively. Further, in assay [2], the Ratio stood at 5.4.
In the case of `O=C(c1ccco1)N1CCN(c2cnn(CCCCCCN3CCN(c4ccccc4Cl)CC3)c(=O)c2Cl)CC1`, the Ki in assay [1] was found to be 0.066 µM; in assay [3] it was 0.0057 µM. Moreover, the Ratio in assay [2] came out at 11.6.
For `COc1ccccc1OCCN1CCN(c2cnn(CCCCN3CCN(c4ccccc4Cl)CC3)c(=O)c2Cl)CC1`, in that order: 0.0393 µM, 0.01 µM and 4.
Turning to `COc1ccccc1OCCN1CCN(c2cnn(CCCCCCN3CCN(c4ccccc4Cl)CC3)c(=O)c2Cl)CC1`, the Ki was determined as 0.0252 µM in assay [1] and 0.0042 µM in assay [3]. Besides, the Ratio in assay [2] stood at 6.
Consider `COc1ccccc1N1CCN(CCCCn2nc(N3CCN(C(=O)c4ccco4)CC3)ccc2=O)CC1`, for which the Ki in assay [1] turned out to be 0.79 µM; in assay [3], 0.18 µM. Further, in assay [2], the Ratio worked out at 4.4.
As for `COc1ccccc1OCCN1CCN(c2ccc(=O)n(CCCCCN3CCN(c4ccccc4Cl)CC3)n2)CC1`, the values for the Ki in assay [1] and in assay [3] were 0.138 µM and 0.007 µM, respectively. Besides, the Ratio in assay [2] was determined as 20.
Regarding `O=C(c1ccco1)N1CCN(c2cnn(CCCN3CCN(c4ccccc4Cl)CC3)c(=O)c2Cl)CC1`, the inhibition constant (Ki) in assay [1] was 0.085 µM; in assay [3] it was 0.0035 µM. Moreover, in assay [2], the Ratio came to 24.3.
Turning to `COc1ccccc1OCCN1CCN(c2cnn(CCCCCCN3CCN(c4ccccc4OC)CC3)c(=O)c2Cl)CC1`, the values for the Ki in assay [1] and in assay [3] were 0.0035 µM and 0.0015 µM, respectively. Also, the Ratio in assay [2] amounted to 2.3.
For the compound `COc1ccccc1N1CCN(CCCCCn2ncc(N3CCN(C(=O)c4ccco4)CC3)c(Cl)c2=O)CC1`, the Ki turned out to be 0.0233 µM in assay [1] and 0.0019 µM in assay [3]. The Ratio in assay [2] turned out to be 12.3.
As for `O=C(c1ccco1)N1CCN(c2ccc(=O)n(CCCCCCN3CCN(c4ccccc4Cl)CC3)n2)CC1`, the Ki in assay [1] was 0.0237 µM; in assay [3], 0.0059 µM. Moreover, the Ratio in assay [2] was determined as 4.
For `COc1ccccc1OCCN1CCN(c2cnn(CCCN3CCN(c4ccccc4OC)CC3)c(=O)c2Cl)CC1`, in that order: 0.245 µM, 0.0145 µM and 17.

The values above are taken from ChEMBL document CHEMBL1134688, “Synthesis, biological evaluation, and pharmacophore generation of new pyridazinone derivatives with affinity toward alpha(1)- and alpha(2)-adrenoceptors” (J Med Chem, 2001).
